In patent US4477464A, “Hetero-benzazepine derivatives and their pharmaceutical use” (Ciba-Geigy Corporation, priority 1983, dated 1984):
Counter-ions that a name gives are not always drawn.

Key:
[1] = target: T1, angiotensin-converting enzyme (Oryctolagus cuniculus, UniProt P12822); test: in vitro inhibition of angiotensin-converting enzyme (hippuryl-histidyl-leucine substrate); assay type: biochemical, rabbit; settings: angiotensin-converting enzyme preparation from lungs of adult male rabbits, 37° C., 30 minutes
T1 construct: angiotensin-converting enzyme preparation (from lungs of adult male rabbits); from tissue; host or cells: lungs of adult male rabbits
T1 sequence (P12822 34-1310): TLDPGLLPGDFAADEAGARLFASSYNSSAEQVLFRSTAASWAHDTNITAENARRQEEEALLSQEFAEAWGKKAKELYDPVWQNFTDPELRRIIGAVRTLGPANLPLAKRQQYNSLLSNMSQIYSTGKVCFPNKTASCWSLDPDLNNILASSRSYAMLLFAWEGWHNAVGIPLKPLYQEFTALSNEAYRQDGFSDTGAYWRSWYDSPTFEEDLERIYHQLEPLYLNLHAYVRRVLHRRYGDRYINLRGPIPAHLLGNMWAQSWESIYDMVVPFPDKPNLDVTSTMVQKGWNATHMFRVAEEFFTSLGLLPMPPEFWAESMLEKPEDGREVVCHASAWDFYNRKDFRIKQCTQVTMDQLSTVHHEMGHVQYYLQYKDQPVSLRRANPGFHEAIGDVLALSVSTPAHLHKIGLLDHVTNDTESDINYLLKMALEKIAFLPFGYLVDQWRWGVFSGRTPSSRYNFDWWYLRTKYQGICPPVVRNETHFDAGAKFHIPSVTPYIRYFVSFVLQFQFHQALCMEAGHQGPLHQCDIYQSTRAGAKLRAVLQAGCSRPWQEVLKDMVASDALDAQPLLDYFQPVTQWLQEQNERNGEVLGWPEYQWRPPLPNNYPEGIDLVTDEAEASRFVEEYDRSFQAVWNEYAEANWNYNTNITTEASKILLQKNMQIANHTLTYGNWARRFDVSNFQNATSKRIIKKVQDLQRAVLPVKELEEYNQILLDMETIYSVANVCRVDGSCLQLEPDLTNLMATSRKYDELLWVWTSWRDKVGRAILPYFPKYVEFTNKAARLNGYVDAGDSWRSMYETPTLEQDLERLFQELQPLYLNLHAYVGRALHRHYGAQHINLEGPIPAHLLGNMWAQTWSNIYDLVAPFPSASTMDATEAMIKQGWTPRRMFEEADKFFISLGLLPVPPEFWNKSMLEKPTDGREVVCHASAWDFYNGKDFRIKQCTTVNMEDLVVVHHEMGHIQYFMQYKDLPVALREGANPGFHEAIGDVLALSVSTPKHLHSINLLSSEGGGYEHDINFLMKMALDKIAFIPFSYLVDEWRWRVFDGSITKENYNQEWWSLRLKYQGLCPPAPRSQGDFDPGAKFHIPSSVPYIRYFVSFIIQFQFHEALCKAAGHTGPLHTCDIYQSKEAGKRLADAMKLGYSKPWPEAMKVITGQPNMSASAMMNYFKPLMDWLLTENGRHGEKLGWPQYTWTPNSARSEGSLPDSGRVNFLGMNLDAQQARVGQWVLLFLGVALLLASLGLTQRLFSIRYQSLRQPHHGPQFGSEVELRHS
Method: Biophys. Acta 293, 451 (1973). According to this method, said compounds are dissolved at about 1 mM concentration in phosphate buffer. To 100 microliters of solutions of the test compound in phosphate buffer, diluted to the desired concentration, are added 100 microliters of 5 mM hippuryl-histidyl-leucine in phosphate buffer, followed by 50 microliters of the angiotensin-converting enzyme preparation (from lungs of adult male rabbits) in Tris buffer, containing potassium and magnesium chloride, as well as sucrose. Said solutions are incubated at 37° C. for 30 minutes and combined with 0.75 ml of 0.6N aqueous sodium hydroxide to stop further reaction. Then 100 microliters of a 0.2% solution of o-phthalaldehyde in methanol are added at room temperature, and 10 minutes later 100 microliters of 6N hydrochloric acid. These samples are read against water in a spectrophotometer set at 360 nm, and the optical densities thereof estimated. They are corrected for the standard curve via a conversion factor expressing nanomoles of histidyl-leucine formed during said 30 minute incubation period. The results are plotted against drug concentration to determine the IC50, i.e., the drug concentration which gives half the activity of the control sample containing no drug.

[2] = system: angiotensin-converting enzyme; test: inhibition of Angiotensin I induced pressor response in normotensive rats; assay type: in vivo, rat; settings: normotensive anesthetized rats, 10 mg/kg p.o., measured 2 to 4 hours after administration
Method: Angiotensin I is hydrolyzed by the action of said converting enzyme to the potent pressor substance Angiotensin II. The inhibition of said enzyme prevents the generation of Angiotensin II from I and, therefore, attenuates any pressor response following an Angiotensin I challenge.
The corresponding in vivo test is performed with male, normotensive rats, which are anesthetized with sodium 5-ethyl-5-(1-methylpropyl)-2-thiobarbiturate. A femoral artery and saphenous vein are cannulated respectively for direct blood pressure measurement and the i.v. administration of Angiotensin I and a compound of this invention. After the basal blood pressure is stabilized, pressor responses to 3 challenges of 333 ng/kg angiotensin I i.v., at 5 minute intervals, are obtained. Such pressure responses are usually again obtained at time intervals after i.v. or p.o. administration of the compound to be tested, and compared with the initial responses. Any observed decrease of said pressor response is an indication of Angiotensin I converting enzyme inhibition. Illustrative of this invention, the compound of example 3a inhibits the pressor response following angiotensin I challenge by about 70% at a dose of 10 mg/kg p.o. as measured 2 to 4 hours after administration.

[3] = system: spontaneously hypertensive rats; test: antihypertensive effect in spontaneously hypertensive rats, indirect systolic pressure; assay type: in vivo, rat; settings: 10 mg/kg p.o.
Method: The in vivo lowering effect on the blood pressure is recorded, either directly by means of a catheter, placed in the test animal's femoral artery, or indirectly by sphygmomanometry at the rat's tail or a transducer. The blood pressure is recorded in mm Hg prior to and after dosing.
Thus the antihypertensive effects are demonstrable in spontaneously hypertensive rats by indirect measurement of systolic pressure. Conscious rats are placed individually in restraint cages within a gently warmed chamber. A rubber pulse sensor is placed distal to an inflatable occlusive cuff on each rat's tail. The cuff is periodically inflated to occlude the tail artery, and systolic pressure is recorded as the point where the first discernible pulse emerges along the decaying calibrated pressure curve. After obtaining control values of blood pressure and heart rate, test compounds are administered orally once daily for 4 consecutive days. Additional blood pressure measurements are usually made at 2.0, 4.0 and 23.5 hours after each daily dosing, and responses are compared to those of rats dosed with the treatment vehicle.
Illustrative of the invention, the compound of example 3a at a dose of 10 mg/kg p.o. lowers blood pressure by about 35 mm Hg.

| Compound | IC50 [1] | inhibition of pressor response following angiotensin I challenge [2] | lowering of blood pressure [3] |
| --- | --- | --- | --- |
| O=C(O)CN1C(=O)[C@@H](N[C@@H](CCc2ccccc2)C(=O)O)C[S+]([O-])c2ccccc21 (stereo partly drawn) [Example 12, (3R)-{N-[(1S)-carboxy-3-phenylpropyl]amino}-5-carboxymethyl-2,3-dihydro-1-oxo-1,5-benzothiazepin-4(5H)-one] | ~6 nM |  |  |
| O=C(O)CN1C(=O)[C@@H](NC(CCc2ccccc2)C(=O)O)CSc2ccccc21 (stereo partly drawn) [Example 2, (3R)-[N-(1-carboxy-3-phenylpropyl)amino]-5-carboxymethyl-2,3-dihydro-1,5-benzothiazepin-4(5H)-one] | ~10 nM |  |  |
| CCOC(=O)[C@H](CCc1ccccc1)N[C@H]1CSc2ccccc2N(CC(=O)O)C1=O [Example 3a, (3R)-{N-[(1S)-carboethoxy-3-phenylpropyl]amino}-5-carboxymethyl-2,3-dihydro-1,5-benzothiazepin-4(5H)-one hydrochloride] |  | about 70% | about 35 mm Hg |
| NCCCCC(N[C@H]1CSc2ccccc2N(CC(=O)O)C1=O)C(=O)O (stereo partly drawn) [Example 14, (3R)-[N-(1-carboxy-5-aminopentyl)amino]-5-carboxymethyl-2,3-dihydro-1,5-benzothiazepin-4(5H)-one dihydrochloride] | ~28 nM |  |  |
| O=C(O)CN1C(=O)[C@@H](N[C@@H](CCc2ccccc2)C(=O)O)CSc2ccccc21 [Example 6, (3R)-{N-[(1S)-carboxy-3-phenylpropyl]amino}-5-carboxymethyl-2,3-dihydro-1,5-benzothiazepin-4(5H)-one] | ~3 nM |  |  |
